Results: US8232243B2, “Tyrosine- and tryptophan-containing peptides as antioxidants” (Max-Planck-Gesellschaft zur Forderung der Wissenschaften …, priority 1999, dated 2012)
No end group written: not given here.

Experiments:
Type in all cases: biochemical
[1] = tested on: B-phycoerythrin from Porphyrium cruentum; assay: peroxy free radical trapping test (protection of B-phycoerythrin from destruction by peroxy free radicals); conditions: B-phycoerythrin 10 nM, 2,2'-azobis-2-methylpropionamidine 500 μM, 37° C.; peptide 20 nM to 20 μM
Method: The ability of peptides to protect the globular protein B-phycoerythrin from destruction by peroxy free radicals was tested. This was done by oxidizing B-phycoerythrin from Porphyrium cruentum (10 nM) in phosphate-buffered saline solution using 2,2′-azobis-2-methylpropionamidine (500 μM) at 37° C. as source of peroxy free radicals. Destruction of the protein was measured by observing the decrease in the protein fluorescence with increasing incubation time (flash fluorimetry, excitation window 340±50 nm, emission window 572±6 nm) . The results of this experiment for the secretory peptides GnRH (human) and for the synthetic peptides WY, WGGGY, WW and YY are shown in FIG. 1A. The meanings in the individual diagrams are • the control and ⋄ a concentration of 20 nM, ∘ 200 nM, ▾ 2 μM and ∇ 20 μM of the particular peptide (quadruplicate determinations) .
The results are shown in FIG. 2. • means the control, ∘ means a concentration of 200 nM, ▾ means a concentration of 2 μM and ∇ means a concentration of 20 μM of the particular peptide (quadruplicate determinations).
Experiments were carried out to test the antioxidant effect of other substances in the peroxy free radical trapping test described in example 1. The results are shown in FIG. 3 (see FIG. 1A for explanation) .

human LDL = assay: protection of LDL from copper-catalyzed oxidation (conjugated dienes, 234 nm); conditions: LDL 0.1 mg/ml protein, 10 μM CuSO4, 37° C.; peptide 20 μM and 100 μM
Method: In a further test, the ability of the peptides to protect LDL from copper-catalyzed oxidation was tested. This was done by incubating fresh human LDL (0.1 mg/ml protein) with 10 μM CuSO4 at 37° C. The reaction products of the LDL decomposition (conjugated dienes) were measured by photometry at 234 nm as described by Moosmann and Behl (Proc. Natl. Acad. Sci. USA 96 (1999), 8867). The three curves show the control, a concentration of 20 μM and a concentration of 100 μM of the particular peptide (duplicate determinations).

[2] = tested on: native rat brain membranes; assay: protection of brain membranes from oxidative damage by ascorbate (lipid peroxidation, chemiluminescence); conditions: membranes 0.5 mg/ml protein, 50 μM ascorbate, 37° C.; peptide 20 μM and 100 μM
Method: Secretory peptides are able to protect brain membranes from oxidative damage by ascorbate. This was done by oxidizing native rat brain membranes (0.5 mg/ml protein) by adding 50 μM ascorbate at 37° C. Single-photon measurement of the chemiluminescence (as measure of peroxidation reactions occurring) was measured for quantitative determination of the lipid peroxidation as described by Moosmann and Behl (supra). The results for GnRH (human) are shown in FIG. 1C. • means the control and ⋄ a concentration of 20 μM and ▪ a concentration of 100 μM of the particular peptide (duplicate determinations).

For “LRPG-amide (LRPG-NH2; listed as Homo sapiens) [GnRH 7-10]”, the “antioxidant effect in trapping peroxy free radicals (decrease in B-phycoerythrin fluorescence)” value [1] was “complete loss of activity”.
For “SYGLRPG-amide (SYGLRPG-NH2; listed as Homo sapiens) [GnRH 4-10]”, the “antioxidant effect in trapping peroxy free radicals (decrease in B-phycoerythrin fluorescence)” value [1] was “markedly reduced”.
For “WGGY (A synthetic peptide which functions as an antioxidant)”, the “antioxidant effect in trapping peroxy free radicals (decrease in B-phycoerythrin fluorescence)” value [1] was “Analogous results”.
In the case of WGY, the “antioxidant effect in trapping peroxy free radicals (decrease in B-phycoerythrin fluorescence)” value [1] was “Analogous results”.
In the case of “cyEHWSHDWKPG-amide (N-terminal pyroglutamate, C-terminal amide; listed as Petromyzon marinus) [GnRH (lamprey)]”, the “antioxidant effect in trapping peroxy free radicals (decrease in B-phycoerythrin fluorescence)” value [1] was “Analogous results”.
With “cyEHWSYGLRPG-amide (N-terminal pyroglutamate, C-terminal amide; listed as Homo Sapiens) [GnRH (human)]” the “antioxidant effect in trapping peroxy free radicals (decrease in B-phycoerythrin fluorescence)” value [1] was “have antioxidant properties”, the “antioxidant effect in preventing LDL oxidation” value (human LDL) was “have antioxidant properties” and the “antioxidant effect in preventing peroxidation of brain lipids” value [2] was “have antioxidant properties”.
“cyEHWSYGWLPG-amide (HELM PEPTIDE1{[Glp].H.W.S.Y.G.W.L.P.G.[am]}$$$$V2.0; SMILES CC(C)C[C@H](NC(=O)[C@H](Cc1c[nH]c2ccccc12)NC(=O)CNC(=O)[C@H](Cc1ccc(O)cc1)NC(=O)[C@H](CO)NC(=O)[C@H](Cc1c[nH]c2ccccc12)NC(=O)[C@H](Cc1c[nH]cn1)NC(=O)[C@@H]1CCC(=O)N1)C(=O)N1CCC[C@H]1C(=O)NCC(N)=O; listed as Oncorhynchus tshawytscha) [GnRH (salmon)]” was tested, and the “antioxidant effect in trapping peroxy free radicals (decrease in B-phycoerythrin fluorescence)” value [1] was “Analogous results”.
